# Measured values from PubChem BioAssay AID1996.
# Details: buffer; pH 7.4; 200.0 µM
row,Compound,solubility kinetic [mg/mL]
1,C=CCn1c(SCC(=O)NCC2CCCO2)nc2sc(CC)cc2c1=O (stereo not drawn),> 0.059
2,CC(=O)Nc1ccc(N2C(=O)CSC2c2ccccc2)cc1 (stereo not drawn),> 0.0469
3,Cc1ccc(CN2C(=O)CSC2c2cccnc2)cc1 (stereo not drawn),> 0.0427
4,CC(C)CN=Cc1c(O)c([N+](=O)[O-])cc2oc3c(c12)CCCC3,0.0065
5,COC(=O)c1c(C)oc(C)c1S(=O)(=O)Nc1ccc(C(C)C)cc1,0.0072
6,O=C(CN1CCOCC1)Nc1nc2ccc(Cl)cc2s1,0.0458
7,Cc1cccc(Cc2c(C)[nH]c(=O)c(C#N)c2C)c1,0.0055
8,CC1CCN(C(=O)c2ccc(NC(=O)c3ccccc3)cc2)CC1,> 0.0484
9,Cc1ccc(OCc2ccc([N+](=O)[O-])cc2)c([N+](=O)[O-])n1,0.0011
10,O=C(COC(=O)c1cccs1)Nc1cccc(S(=O)(=O)N2CCCCC2)c1,0.0096
11,CC1CCN(C(=O)c2ccc(N3CCOCC3)c([N+](=O)[O-])c2)CC1,> 0.05
12,CCOc1ccccc1C(=O)NC(C)CCc1ccccc1 (stereo not drawn),0.0222
13,Cc1cc2oc(C(=O)Nc3nonc3C)c(C)c2cc1Cl,< 0.0002
14,CC(C)CC(=O)N1CCN(Cc2ccc(Br)cc2)CC1,0.0281
15,CC(=O)Nc1ccc(NC(=O)CCCc2ccccc2)cc1,0.0229
16,CCN(CC)c1ccc(S(=O)(=O)N2CCOCC2)cc1NC(=O)Nc1ccccc1,0.0022
17,Cc1cc(OCC(=O)N(C)C2CCCCC2)cc(C)c1Cl,0.0154
18,Cc1ccccc1NC(=O)C1CC(=O)OC12CCOC(C)(C)C2 (stereo not drawn),> 0.0476
19,CCCOc1ccc(CNC(=S)Nc2ccccc2)cc1Cl,0.0019
20,O=C(Nc1c(-c2cccs2)nc2ccccn12)c1ccccc1F,0.0471
21,Fc1cccc(NC(=S)NC2CCCCCCC2)c1,0.0029
22,COc1ccc(NC2=C(NC(C)=O)C(=O)c3ccccc3C2=O)cc1,0.0495
23,Fc1ccccc1-n1cc(-c2ccccc2)[nH]c1=S,0.0062
24,Fc1ccccc1NC(=S)NCc1ccccc1,0.0361

row,Compound,solubility kinetic [mg/mL]
1,Cn1ccc(C(=O)Nc2ccc3c(c2)OCCO3)n1,> 0.0389
2,COc1ccc(CCn2cnc3c([nH]c4ccccc43)c2=O)cc1,< 0.0002
3,CCOC(=O)N1CCN(CC(c2ccccc2)c2ccccc2)CC1,0.0256
4,O=C(O)c1ccc(S(=O)(=O)Nc2ccc3c(c2)OCCO3)cc1,0.0415
5,Cl.O=C(Nc1cccc(C(F)(F)F)c1)c1cccnc1NCCO,> 0.0543
6,COc1ccc([N+](=O)[O-])c(S(=O)(=O)c2ccccc2)n1,0.0056
7,COc1cccc(C(=O)O/N=C(\C)c2cnccn2)c1,0.0307
8,COc1cc(NC(=S)N2CCOCC2)c(OC)cc1Cl,> 0.0475
9,O=C(Nc1cccc(Cl)c1)c1ccc2c(c1)OCCO2,0.0063
10,CCOC(=O)C1=C(CCl)NC(=O)NC1c1ccc2c(c1)OCO2 (stereo not drawn),> 0.0508
11,CC(=O)N1CCN(c2ccc([N+](=O)[O-])c(NCc3cccnc3)c2)CC1,> 0.0533
12,O=C1CSC(c2ccc(F)cc2)N1c1ccccc1F (stereo not drawn),0.0368
13,O=C(c1ccc([N+](=O)[O-])cc1[N+](=O)[O-])n1cnc2ccccc21,0.0229
14,Cc1nnc(N(C)C(=O)c2ccc3c(c2)OCO3)s1,> 0.0416
15,O=C(O)CCC(=O)Nc1cc(C(F)(F)F)cc(C(F)(F)F)c1,0.0436
16,COc1ccc(Cn2c(=S)[nH]c3ccccc32)cc1,0.0012
17,CC1CN(C(=O)c2ccc(COc3ccccc3Cl)o2)CC(C)O1 (stereo not drawn),> 0.0525
18,Cc1ccc2[nH]c(C(=O)N3CCOCC3)cc2c1,> 0.0366
19,O=C(O)CC(CC(=O)Nc1ccc(-c2ccccc2)cc1)c1ccccc1 (stereo not drawn),> 0.0539
20,CCN(Cc1ccncc1)C(=O)c1cccc(S(=O)(=O)N2CCCCC2)c1,> 0.0581
21,Cc1ccc(NC(=O)COc2ccc(Br)cn2)cc1,0.0177
22,CN1C(=O)C(=Cc2cn(CC#N)c3ccccc23)C(=O)N(C)C1=O,0.0081
23,Cc1cccc(Cc2nnc(CCC(=O)N(C)Cc3ccncc3C)o2)c1,> 0.0547
24,O=C(CN1C(=O)NC2(CCCCCCC2)C1=O)NCc1ccc(F)cc1,0.0429

row,Compound,solubility kinetic [mg/mL]
1,Cc1cc(C)nc(SCc2cn3c(C)cc(C)nc3n2)n1,> 0.0449
2,O=C(NC(=O)N1CCCc2ccccc21)c1ccccc1,0.0302
3,CC1CCN(c2cc(Br)c([N+](=O)[O-])cc2F)CC1,0.0031
4,COC1c2ccccc2C(=O)N1CCc1ccc(Cl)cc1 (stereo not drawn),0.0417
5,COc1ccc(/C=C/c2nc(-c3ccccc3)cc(=O)[nH]2)cc1,< 0.0003
6,O=C(O)c1cc(-c2ccc(Br)s2)nc2ccccc12,> 0.0501
7,NC(=O)c1c(NC(=O)c2ccc(F)cc2Cl)sc2c1CCC2,0.001
8,COc1ccc(CC(=O)Nc2ccccc2-c2ccccc2)cc1OC,0.0439
9,CCCNC(=O)Cn1nc(C(F)(F)F)c2c1CCC2,> 0.0413
10,N#C/C(=N\O)c1nc2ccccc2s1,> 0.0305
11,O=[N+]([O-])c1ccc(COc2ncnc3ccccc23)cc1,0.0277
12,Cn1c(N)c(C(=O)COC(=O)/C=C/c2ccc(Cl)c(Cl)c2)c(=O)n(C)c1=O,0.0029
13,CCOC(=O)N1CCN(C(=S)Nc2ccccc2C(C)C)CC1,> 0.0503
14,Cc1ccc(-n2nc(-c3ccco3)cc2C(=O)O)cc1,> 0.0402
15,CC1(C)CC2=C(CO1)C(=S)NC(c1ccccc1)N2CC1CCCO1 (stereo not drawn),0.0453
16,CCCCOC(=O)C1=C(C)NC(=O)NC1c1ccc(N(C)C)cc1 (stereo not drawn),0.0017
17,O=C(O)c1cccc(NC(=O)c2ccccc2NC(=O)c2cccc([N+](=O)[O-])c2)c1,0.0483
18,CCCC(=O)Nc1ccc(OCC(O)CNC(C)C)c(C(C)=O)c1.Cl (stereo not drawn),> 0.0559
19,COc1ccc(F)cc1S(=O)(=O)N1CCN(c2ccccn2)CC1,0.0061
20,COc1ccc(CNC(=O)COC(=O)c2cc3ccccc3o2)cc1,0.0054
21,CCN(Cc1ccccc1)C(=O)c1c(-c2ccccc2Cl)noc1C,0.0387
22,COc1cc(Cl)c(C)cc1NC(=O)CCNC(=O)c1ccco1,> 0.0505
23,COc1nc2ccccc2nc1N1CCN(c2ccc(F)cc2)CC1,< 0.0002
24,CCOc1ncccc1C(=O)OCC(=O)NCc1ccc(C(=O)OC)cc1,> 0.0559

row,Compound,solubility kinetic [mg/mL]
1,COc1ccc(CC(=O)Nc2nc(C)cs2)cc1,0.0272
2,CCNC(=O)COC(=O)c1cc(C)n(-c2ccccc2)c1C,> 0.0451
3,O=C(NCC(=O)N1CCOCC1)c1ccccc1,> 0.0372
4,CC1CC1C(=O)N(C)CC(=O)Nc1ccccc1Br (stereo not drawn),> 0.0488
5,CC(=O)N[C@H]1C(O)O[C@H](CO)[C@@H](O)[C@@H]1O (stereo partly drawn),> 0.0332
6,CC(C)C(NC(=O)C(C)N1C(=O)c2ccccc2C1=O)c1ccccc1 (stereo not drawn),> 0.0526
7,O=C(c1cccc([N+](=O)[O-])c1)c1ccccn1,> 0.0342
8,CCCc1nc(SCC(=O)Nc2nccs2)c2ccccc2n1,0.0009
9,O=C(NCC1CCCO1)c1ccc(F)c2ccccc12 (stereo not drawn),> 0.041
10,O=C(CCNc1cccc(F)c1)c1cc2ccccc2o1,< 0.0006
11,Cc1ccc(N2CCN(S(=O)(=O)c3ccc(C)cc3)CC2)cc1,< 0.0004
12,O=C(NC(=S)Nc1cccnc1Cl)c1ccco1,0.0322
13,COc1ccc(Nc2nccc(-c3ccc([N+](=O)[O-])cc3)n2)cc1,0.0004
14,COc1ccc(NC(=S)NCc2ccccc2Cl)c(OC)c1,< 0.0004
15,Cc1ccccc1-c1nc2ccccc2c(=O)n1C,0.0358
16,O=S(=O)(NCc1ccco1)c1ccc(Cl)cc1Cl,0.035
17,CC1CN(C(=O)COC(=O)c2ccc(C#N)cc2)CC(C)O1 (stereo not drawn),> 0.0453
18,Cc1cc(/C=C\c2ccccc2)nc2ccccc12,< 0.0005
19,CCCCNC(=O)c1ccc(CS(=O)(=O)Cc2ccccc2F)o1,> 0.053
20,O=C(NNC1CC(=O)N(c2ccccc2)C1=O)c1cccnc1 (stereo not drawn),> 0.0465
21,COc1cc(NC(=O)CCCn2c(=O)oc3ccccc32)cc(OC)c1,0.0242
22,COc1ccc(C(=O)OCC(=O)NCC2CCCO2)c(F)c1 (stereo not drawn),> 0.0467
23,CC(=O)c1ccc(OCC(=O)Nc2ccccc2N2CCCC2)cc1,0.0444
24,CCOC(=O)C(=O)N/N=C(/c1ccccc1)c1ccc(OC)cc1,> 0.049

row,Compound,solubility kinetic [mg/mL]
1,CC(=O)c1ccccc1OC(=O)COc1ccc([N+](=O)[O-])cc1,> 0.0473
2,c1ccc(Nc2nc(-c3ccccc3)nc3ccccc23)cc1,0.0025
3,C=CCNC(=O)c1ccc(N(Cc2ccccc2)S(C)(=O)=O)cc1,> 0.0517
4,Cc1ccc(-c2cc(C(=O)O)c3ccccc3n2)s1,> 0.0404
5,CC(C)N1CN(c2ccccc2)C(=S)N(c2ccccc2)C1,> 0.0467
6,COC(=O)Nc1nn(-c2ccc(OC)cc2)c(=O)c(C#N)c1C,> 0.0471
7,CC1(C)C=C2C(=NN(c3ccccc3)C(N)=C2C#N)CO1,> 0.042
8,O=C(NCCCNC(=O)c1ccc(Cl)cc1Cl)c1ccco1,0.0501
9,COC(=O)c1cc(C(=O)Cc2ccccc2)c[nH]1,> 0.0365
10,CCOc1ccccc1NC(=O)COc1ccc2c(c1)OCO2,< 0.0007
11,COC(=O)c1cc(Br)c(N)cc1OC,> 0.039
12,Cl.O=C(CN1CCCC1)Nc1cccc(Cl)c1,> 0.0413
13,O=C(O)c1cc2c(=O)c3ccccc3oc2nc1C(F)(F)F,> 0.0464
14,Cc1ccc(NC(=O)CCNC(=O)c2ccc(Cl)cc2)cc1C,0.0017
15,COCc1cc(SC2CCCCC2)nc(C)n1,0.0117
16,CCC(=O)O/N=C(\N)c1ccc(Oc2cc(C)c(Cl)c(C)c2)c([N+](=O)[O-])c1,< 0.0003
17,CCOC(=O)c1c(O)c2ccccc2n(CC)c1=O,> 0.0392
18,COc1ccc(NC(=O)CC2(CC(=O)O)CCCC2)cn1,> 0.0439
19,Clc1ccc(NCc2cccnc2)cc1,0.0299
20,CCOc1ccc(S(=O)(=O)Nc2ccc3c(c2)OCO3)cc1,0.0454
21,Cc1[nH]c2c([N+](=O)[O-])cccc2c1C,0.0012
22,COc1ccccc1C/C(N)=N/OC(=O)COc1cccc(C)c1C,0.0082
